US20240226211A9, “SEAWEED EXTRACTS, ISOLATED COMPOUNDS, AND METHODS OF TREATMENT” (University of Florida Research Foundation, Incorporated, priority 2017, published 2024)
Entries after “also recorded” stand apart in the source; their conditions may differ.

Tests used:
[1] = tested on: ARE-driven genes (GCLC, Gclm, TXNRD1, GSTA4, HMOX1); test: qPCR of ARE-driven genes in IMR-32 cells; format: cell-based, human
Procedure: (§1) The RNeasy Mini Kit (Qiagen) was used to collect total RNA from cells, while for mouse tissue, TRIzol reagent (Invitrogen) was used. In each case, total RNAs (2 μg) were reverse-transcribed into cDNAs, which were used as templates for TaqMan gene expression assay (Applied Biosystems) and detected using the 7300 Real-Time PCR System (Applied Biosystems). Each qPCR sample was tested in triplicate as a 25 μL total reaction volume (12.5 μL of Taqman 2× universal master mix, 1.25 μL of a 20× TaqMan gene expression assay probe, 1 μL of the above cDNA, and 10.25 μL of RNase-free sterile water). The qPCR method was designed as following: 50° C. for 2 min, 95° C. for 10 min, and 40 cycles of 95° C. for 15 s and 60° C. for 1 min. Endogenous controls used included GAPDH for IMR-32 cells and β-actin to normalize for RAW264.7 cells and mouse tissues.

iNOS = iNOS transcript levels in RAW264.7 macrophage cells; format: cell-based, mouse; settings: 10 μM Compound 1, IFN-γ
Procedure: as §1
(§2) RAW264.7 cells were seeded in 6-well plates (8×10^5 cells/well) and incubated at 37° C. overnight.

Cox2 = Cox2 transcript levels in RAW264.7 macrophage cells; format: cell-based, mouse; settings: 10 μM Compound 1, IFN-γ
Procedure: as §1, §2

[2] = tested on: NO production in MEF cells; test: NO assay in MEF cells; format: cell-based, murine; settings: stimulated with IFN-γ and TNF-α
Procedure: RAW264.7 cells (2×10^4 cells/well), wild-type (8×10^3 cells/well), Nrf2−/−(7×10^3 cells/well), and Keap1−/−(5×10^3 cells/well) MEF were seeded into 96-well format. Cells were pretreated for 1 h with a solvent control (DMSO, 1%, v/v) or serial dilutions of isolated compounds or extracts before addition of LPS (1 μg/mL) or IFN-γ (10 ng/mL). […] In each case, 50 μL of the media was combined with 50 μL Griess Reagent (Promega). Absorbance was measured at 540 nm and compared with a calibration curve generated using the provided […] standard.

[3] = tested on: neutrophil migration to cut site, Tg(mpx::GFP) zebrafish; test: Zebrafish in vivo neutrophil migration assay; set-up: species or system Danio rerio; settings: relative to DMSO vehicle control
Procedure: Tg(mpx::GFP)^ill4 transgenic zebrafish larvae (6 dpf) were pre-treated in duplicate with a solvent control ((DMSO, 1%, v/v) or serial dilutions of the compound or extract in 12-well plate format with five larvae per well containing 1 mL E2 medium containing 1 mM Tris pH 7.4. After 3 hours, larvae were anesthetised with Tricaine and tailfins were amputated using sharp blades to induce the migration of neutrophils. The larvae were then placed into fresh wells to be post-treated for an additional 3 hours. A fluorescence stereomicroscope was used to count the number of neutrophils that migrated to the site of injury. The assay was performed in triplicate to determine statistical significance.
For in vivo evaluation, a previously reported neutrophil migration assay in the model organism, Danio rerio, was used [Wang X, et al. (2014) Inhibitors of neutrophil recruitment identified using transgenic zebrafish to screen a natural product library. Dis Model Mech 7(1):163-169]. […] The fish were then quickly transferred into fresh media containing the treatments for an additional 3 h before the GFP-tagged neutrophils were counted under the fluorescent microscope. […]

Hmox1 = Hmox1 transcript levels in mouse organs after oral gavage; format: in vivo; settings: mice, particularly digestive tract
Procedure: as §1
The experiments were approved by the Institutional Animal Care & Use Committee at the University of Florida. Groups of 5-10 wild type male mice (C57BL/6J) were used for each treatment type. The mice were maintained under approved standard conditions. […] The tissues were harvested immediately, frozen on dry ice, and kept at −80° C. until analyzed.
A low dose and a high dose of cymopol (1) or the NP extract were administered to 4-week-old male mice via oral gavage.

SMILES: CC(C)=CCC/C(C)=C/Cc1cc(O)c(Br)cc1O [Compound 1, (E)-2-bromo-5-(3,7-dimethylocta-2,6-dien-1-yl)benzene-1,4-diol]
- transcription of a series of ARE-driven genes [1]: induce the transcription of a series of ARE-driven genes
- lowering of induced iNOS transcript levels (iNOS): > 96%
- reduction of Cox2 transcript levels (Cox2): 90%
- NO production in wild-type MEFs [2]: minimized NO production; also recorded: restore basal level of NO
- anti-inflammatory effects in Nrf2−/− and Keap1−/− MEFs [2]: did not demonstrate appreciable anti-inflammatory effects
- number of neutrophils at the cut site [3]: decrease of neutrophils
- transcript levels of Hmox1 in various organs (Hmox1): elevated transcript levels of Hmox1
